Measurements: PubChem BioAssay (NCI)
Where “and” joins values, the source holds several entries; their conditions need not be identical. Identical values can stand only once.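 Briefly, cells in 96-well plates were exposed to five compound concentrations for 48 h, and endpoints were estimated by linear interpolation. GI50: concentration for 50% inhibition of growth. TGI denotes the concentration required for complete inhibition of growth.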

What was measured:
Experiment in all cases: NCI tumour cell line growth inhibition, 48 h
XF 498 CNS = tested on: XF 498 CNS
DMS 273 small cell lung = tested on: DMS 273 small cell lung
RXF-631 renal = tested on: RXF-631 renal
LXFL 529 NSCLC = tested on: LXFL 529 NSCLC
HOP-18 NSCLC = tested on: HOP-18 NSCLC
DMS 114 small cell lung = tested on: DMS 114 small cell lung
P388 leukemia = tested on: P388 leukemia
P388/ADR leukemia = tested on: P388/ADR leukemia
BT-549 breast = tested on: BT-549 breast
MDA-MB-435 = tested on: MDA-MB-435
MDA-N = tested on: MDA-N

| SMILES | TGI (XF 498 CNS) | TGI (DMS 273 small cell lung) [µM] | TGI (RXF-631 renal) [µM] | TGI (LXFL 529 NSCLC) [µM] | TGI (HOP-18 NSCLC) | TGI (DMS 114 small cell lung) | TGI (P388 leukemia) [µM] | TGI (P388/ADR leukemia) [µM] | GI50 (BT-549 breast) [µM] | TGI (BT-549 breast) | GI50 (XF 498 CNS) [µM] | TGI (MDA-MB-435) [µM] | GI50 (MDA-N) [µM] | TGI (MDA-N) [µM] | GI50 (DMS 273 small cell lung) [µM] | GI50 (HOP-18 NSCLC) [µM] | GI50 (RXF-631 renal) [µM] | GI50 (LXFL 529 NSCLC) [µM] | GI50 (DMS 114 small cell lung) [µM] |
| --- | --- | --- | --- | --- | --- | --- | --- | --- | --- | --- | --- | --- | --- | --- | --- | --- | --- | --- | --- |
| CN1CCC23c4c5ccc(O)c4OC2C(=NN=C2CCC4(O)C6Cc7ccc(O)c8c7C4(CCN6C)C2O8)CCC3(O)C1C5 (stereo not drawn) | > 100 µM | > 100 | > 100 | > 100 | > 100 µM | > 100 µM |  |  |  |  |  |  |  |  |  |  |  |  |  |
| Cc1nc(NC(=S)NC(=O)c2ccc(Cl)c(Cl)c2)sc1C(=O)/C=C/c1ccccc1[N+](=O)[O-] | 35.9 µM | 48.3 | 56 | 74.3 | 41.7 µM |  |  |  |  |  |  |  |  |  |  |  |  |  |  |
| C=C(C)C(=O)NC(N)=NC#N | > 96.6 µM and 303 µM | 270 |  | 191 | > 57.4 µM and 240 µM | > 82.7 µM and 136 µM | 13.9 | 27.7 | 67.9 | 28.4 µM and 192 µM | 126 | 259 | 96.8 | 216 | 130 | 115 |  |  |  |
| CC[O-].CC[O-].[O-]c1ccccc1C=Nc1ccccc1.[O-]c1ccccc1C=Nc1ccccc1.[Ti+4] | > 100 µM | > 100 | > 100 | > 100 | > 100 µM | > 100 µM |  |  |  |  | > 100 |  |  |  | 21 | > 100 | > 100 | 2.94 | 75.2 |
| CCOC(=O)C1Cc2c(ccc(OC)c2OC)C(=O)C1N (stereo not drawn) | > 100 µM | > 100 | > 100 | > 100 | > 100 µM | > 100 µM |  |  |  |  |  |  |  |  |  |  |  |  |  |
| CN1C(=O)n2c(nc3ccccc32)C(N=[N+]=[N-])(N=[N+]=[N-])C1=O (stereo not drawn) | > 100 µM | > 100 | > 100 | > 100 | > 100 µM | > 100 µM |  |  |  |  |  |  |  |  |  |  |  |  |  |
| O=C1c2ccccc2C(=O)N1/N=C\c1ccc(Br)cc1 | > 100 µM | > 100 | > 100 | > 100 | > 10 µM | > 100 µM |  |  |  |  | > 100 |  |  |  | > 100 |  | > 100 | > 100 | > 100 |
| CCOC(=O)C12CCCC1(O)N(NC(=O)c1cccc(Cl)c1)C(C)=C2C(=O)OC (stereo not drawn) | > 100 µM | > 100 | > 100 | > 100 |  | > 100 µM |  |  |  |  |  |  |  |  |  |  |  |  |  |
| COc1cccc(/C=C(/C(=O)O)c2cc(OC)c(OC)c(OC)c2)c1 | > 100 µM | > 100 | > 100 | > 100 | > 100 µM | > 100 µM |  |  |  |  |  |  |  |  |  |  |  |  |  |
| C/C(CC(=O)CCCC(=O)Nc1ccc(Cl)cc1Cl)=N/NC(=O)CC#N | > 100 µM | > 100 | > 100 | > 100 | > 100 µM | > 100 µM |  |  |  |  |  |  |  |  |  |  |  |  |  |
